Reference: ChEMBL document CHEMBL1201862, “PubChem BioAssay data set” (2004)
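All cell lines were grown in 96-well plates and treated with compound for 48 hours. GI50 marks 50% less growth.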 Activity calls are given as the source filed them. Cut-off read from the data, not from the text of the source: active = GI50 up to about 1.1 µM and inactive = higher.

Key:
Experiment in all cases: inhibition of tumour cell growth, NCI panel, 48 h
SW-620 = tested on: SW-620
HOP-62 = tested on: HOP-62
K562 = tested on: K562
NCI-H23 = tested on: NCI-H23
SK-MEL-5 = tested on: SK-MEL-5
SK-MEL-28 = tested on: SK-MEL-28
CAKI-1 = tested on: CAKI-1
ACHN = tested on: ACHN
Malme-3M = tested on: Malme-3M
A549 = tested on: A549
UACC-62 = tested on: UACC-62
SF-295 = tested on: SF-295
HCC 2998 = tested on: HCC 2998
HL-60 = tested on: HL-60
HCT-116 = tested on: HCT-116
CCRF-CEM = tested on: CCRF-CEM
EKVX = tested on: EKVX
A498 = tested on: A498

SMILES | GI50 (SW-620) | GI50 (HOP-62) | GI50 (K562) | GI50 (NCI-H23) | GI50 (SK-MEL-5) | GI50 (SK-MEL-28) | GI50 (CAKI-1) | GI50 (ACHN) | GI50 (Malme-3M) | GI50 (A549) | GI50 (UACC-62) | GI50 (SF-295) | GI50 (HCC 2998) | GI50 (HL-60) | GI50 (HCT-116) | GI50 (CCRF-CEM) | GI50 (EKVX) | GI50 (A498)
COc1cc([C@@H]2c3cc4c(cc3[C@@H](OC(=O)c3ccccc3)C3COC(=O)[C@@H]32)OCO4)cc(OC)c1O (stereo partly specified) | < 0.01 µM (active) | 0.0208 µM (active) | < 0.01 µM (active) | 0.0148 µM (active) | < 0.01 µM (active) | < 0.01 µM (active) | < 0.01 µM (active) | < 0.01 µM (active) | < 0.01 µM (active) | 0.0132 µM (active) | < 0.01 µM (active) | < 0.01 µM (active) | 0.0345 µM (active) | < 0.01 µM (active) | < 0.01 µM (active) | 0.0304 µM (active) |  | 
CC(=O)OCC(=O)[C@@]1(O)CC[C@H]2[C@@H]3C[C@H](C)C4=CC(=O)C=C[C@]4(C)[C@@]3(F)[C@@H](O)C[C@@]21C | > 100 µM (inactive) | > 100 µM (inactive) | > 100 µM (inactive) | > 100 µM (inactive) | > 100 µM (inactive) | > 100 µM (inactive) | > 100 µM (inactive) | > 100 µM (inactive) | > 100 µM (inactive) | > 100 µM (inactive) | 80.4 µM (inactive) | > 100 µM (inactive) | > 100 µM (inactive) | > 100 µM (inactive) | > 100 µM (inactive) | 5.33 µM (inactive) | > 100 µM (inactive) | 
C/C(=N\NS(=O)(=O)c1ccc(C)cc1)c1ccc[n+]([O-])n1 | 32.1 µM (inactive) | > 100 µM (inactive) | 26.3 µM (inactive) | > 100 µM (inactive) | > 100 µM (inactive) | > 100 µM (inactive) | 25.1 µM (inactive) | > 100 µM (inactive) |  | > 100 µM (inactive) | > 100 µM (inactive) | > 100 µM (inactive) | > 100 µM (inactive) | 26.9 µM (inactive) | > 100 µM (inactive) | 25.2 µM (inactive) | > 100 µM (inactive) | > 100 µM (inactive)
Cc1c(C(=O)/C=C/c2cccc3ccccc23)[n+]([O-])c2ccccc2[n+]1[O-] | 10.4 µM (inactive) | 15.8 µM (inactive) | 4.72 µM (inactive) | 12.8 µM (inactive) |  | 13 µM (inactive) | 7.85 µM (inactive) | 15.3 µM (inactive) | 18.6 µM (inactive) | 16.4 µM (inactive) | 11.3 µM (inactive) | 16.1 µM (inactive) | 16.8 µM (inactive) | 7.41 µM (inactive) | 6.12 µM (inactive) | 3.2 µM (inactive) | 14.1 µM (inactive) | 16.9 µM (inactive)
O=C1C2c3[nH]c4ccccc4c3C3CCCC3C2C(=O)N1c1ccccc1 (stereo unspecified) | 74.1 µM (inactive) |  | > 100 µM (inactive) | > 100 µM (inactive) | > 100 µM (inactive) | > 100 µM (inactive) |  | > 100 µM (inactive) | > 100 µM (inactive) | > 100 µM (inactive) | > 100 µM (inactive) | > 100 µM (inactive) | > 100 µM (inactive) |  |  | > 100 µM (inactive) | > 100 µM (inactive) | > 100 µM (inactive)
C[C@@]1(Cc2ccccc2)C(=O)N2[C@@H](CO)C(c3ccccc3)O[C@]2(C)c2ccccc21 (stereo partly specified) | 91.6 µM (inactive) | > 100 µM (inactive) | > 100 µM (inactive) | > 100 µM (inactive) | > 100 µM (inactive) | > 100 µM (inactive) | 26.2 µM (inactive) | > 100 µM (inactive) |  | > 100 µM (inactive) | > 100 µM (inactive) | 72.4 µM (inactive) |  | > 100 µM (inactive) | > 100 µM (inactive) | 81.1 µM (inactive) | > 100 µM (inactive) | 
